These compounds were tested on AKT protein phosphorylated on serine 473 (P-AKT-S473) in PC3 human prostate carcinoma cells (assay: pAKT expression in PC3 human prostate carcinoma cells, MSD Multi-spot Biomarker detection (Test A)). Conditions: Homo sapiens, PC-3.
Format: cell-based
Procedure: The inhibitory activity of the molecules on AKT phosphorylation is measured using the MSD Multi-spot Biomarker detection technique from Meso Scale Discovery also described below. […] The primary antibody specific for […]) is coated on to an electrode in each well of the 96-well plates of the MSD kit: after the addition of a protein lysate to each well, the signal is visualized by adding a secondary detection antibody labeled with an electrochemiluminescent compound. The procedure followed is the one described in the kit. […] On day 2, the cells are incubated in the presence or absence of the test products for 1 to 2 h at 37° C. in the presence of 5% CO2. The molecules, diluted in dimethyl sulfoxide (DMSO Sigma #D2650), are added from a 20-times concentrated stock solution, the final percentage of DMSO being 0.1%. The molecules are tested either at a single concentration of less than or equal to 10 μM, or at increasing concentrations in a range that can extend from less than 1 nM to 10 μM. After this incubation, the cells are lysed for the preparation of the proteins. […] At this stage, the plates containing the lysates can be frozen at -20° C. or at -80° C. The wells of the 96 well plates of the MSD kit are saturated for 1 h at ambient temperature with the blocking solution of the MSD kit. Four washes are carried out with 150 μl of Tris Wash Buffer of the MSD kit. The lysates previously prepared are transferred into the 96-well multi-spot plates of the MSD kit and incubated for 1 h at ambient temperature, with shaking. Four washes are carried out with 150 μl of Tris Wash Buffer of the MSD kit. 25 μl of the MSD sulfo-tag detection antibody solution are added to the wells and incubated for 1 h at ambient temperature, with shaking. Four washes are carried out with 150 μl of Tris Wash Buffer of the MSD kit. 150 μl of Read Buffer of the MSD kit are added to the wells and the plates are read immediately on the S12400 instrument from Meso Scale Discovery. The instrument measures a signal for each well. Wells without cells and containing the lysis buffer serve to determine the background noise that will be subtracted from all the measurements (min). The wells containing cells in the absence of product and in the presence of 0.1% DMSO are considered to be the 100% signal (max). The percentage inhibition is calculated for each concentration of product tested, according to the following formula: (1-((test-min)/(max-min)))×100. […] Two independent experiments make it possible to calculate the mean of the IC50 values.

`Cn1c(CC(=O)Nc2ccc(F)c(Cl)c2)nc(N2CCOC(CF)C2)cc1=O` (single isomer, unassigned; (+)) [Example 5b, (+)-N-(3-chloro-4-fluorophenyl)-2-[4-(2-fluoromethylmorpholin-4-yl)-1-methyl-6-oxo-1,6-dihydropyrimidin-2-yl]acetamide] showed an IC50 of 127 nM.

Same assay, conditions: Homo sapiens, PC-3, PC3 cells, 1 to 2 h incubation, P-AKT-S473, absolute IC50, mean of two independent experiments

Point of comparison: `CC1CN(c2cc(=O)[nH]c(CC(=O)N3c4ccccc4C[C@@H]3C)n2)CCO1` (single isomer, unassigned; (+)) [Example 29b], IC50 24 nM. Against it:
- CCC1CN(c2cc(=O)[nH]c(CC(=O)Nc3ccc(F)cc3)n2)CCO1 (racemic) [Example 14b, (±)-2-[4-(2-ethylmorpholin-4-yl)-6-oxo-1,6-dihydropyrimidin-2-yl]-N-(4-fluorophenyl)acetamide] — 12-fold higher, 280 nM
- O=C(Cc1nc(N2CCOC(CO)C2)cc(=O)[nH]1)N1CCc2c(F)cccc21 (racemic) [Example 27b, (±)-2-[2-(4-fluoro-2,3-dihydroindol-1-yl)-2-oxoethyl]-6-(2-hydroxymethylmorpholin-4-yl)-3H-pyrimidin-4-one] — 55-fold higher, 1330 nM
- CCC1CN(c2cc(=O)[nH]c(CC(=O)Nc3ccc(F)cc3)n2)CCO1 (single isomer, unassigned; (+)) [Example 15b, (+)-2-[4-(2-Ethylmorpholin-4-yl)-6-oxo-1,6-dihydropyrimidin-2-yl]-N-(4-fluorophenyl)acetamide] — 4.4-fold higher, 105 nM
- CC1Cc2c(ccc(F)c2F)N1C(=O)Cc1nc(N2CCOCC2)cc(=O)n1C (single isomer, unassigned; (+)) [Example 19c, (+)-2-{2-[4,5-difluoro-2-methyl-2,3-dihydro-1H-indol-1-yl]-2-oxoethyl}-3-methyl-6-(morpholin-4-yl)pyrimidin-4(3H)-one] — within 1.5-fold, 19 nM

Same assay, conditions: PC3 cells, 1 to 2 h incubation, P-AKT-S473, absolute IC50, mean of two independent experiments

Point of comparison: `CC1Cc2c(ccc(F)c2F)N1C(=O)Cc1nc(N2CCOCC2)cc(=O)[nH]1` (single isomer, unassigned; (+)) [Example 17c, (+)-2-{2-[4,5-difluoro-2-methyl-2,3-dihydro-1H-indol-1-yl]-2-oxoethyl}-6-(morpholin-4-yl)pyrimidin-4(3H)-one], IC50 4 nM. Against it:
- CC1CN(c2cc(=O)[nH]c(CC(=O)Nc3ccc(F)cc3)n2)CCO1 (single isomer, unassigned; (+)) [Example 2b, (+)-N-(4-fluorophenyl)-2-[4-(2-methylmorpholin-4-yl)-6-oxo-1,6-dihydropyrimidin-2-yl]acetamide] — 1.5-fold higher, 6 nM
- CC1Cc2c(Cl)cccc2N1C(=O)Cc1nc(N2CCOCC2)cc(=O)[nH]1 (single isomer, unassigned; (+)) [Example 2c, (+)-2-{2-[4-chloro-2-methyl-2,3-dihydro-1H-indol-1-yl]-2-oxoethyl}-6-(morpholin-4-yl)pyrimidin-4(3H)-one] — within 1.5-fold, 5 nM
- O=C(Cc1nc(N2CCOC(CF)C2)cc(=O)[nH]1)Nc1ccc(F)cc1 (single isomer, unassigned; (+)) [Example 4b, (+)-N-(4-fluorophenyl)-2-[4-(2-fluoromethylmorpholin-4-yl)-6-oxo-1,6-dihydropyrimidin-2-yl]acetamide] — 30-fold higher, 118 nM
- O=C(Cc1nc(N2CCOC(CF)C2)cc(=O)[nH]1)N1CCc2c(F)cccc21 (single isomer, unassigned; (+)) [Example 7b, (+)-2-[2-(4-fluoro-2,3-dihydroindol-1-yl)-2-oxoethyl]-6-(2-fluoromethylmorpholin-4-yl)-3H-pyrimidin-4-one] — 5.2-fold higher, 21 nM
- CC1Cc2c(O)cccc2N1C(=O)Cc1nc(N2CCOCC2)cc(=O)[nH]1 (single isomer, unassigned; (+)) [Example 9c, (+)-2-{2-[4-hydroxy-2-methyl-2,3-dihydro-1H-indol-1-yl]-2-oxoethyl}-6-(morpholin-4-yl)pyrimidin-4(3H)-one] — 29-fold higher, 115 nM
- CC1CN(c2cc(=O)[nH]c(CC(=O)N3CCc4c(F)cccc43)n2)CCO1 (single isomer, unassigned; (+)) [Example 10b, (+)-2-[2-(4-fluoro-2,3-dihydroindol-1-yl)-2-oxoethyl]-6-(2-methylmorpholin-4-yl)-3H-pyrimidin-4-one] — 2-fold higher, 8 nM
- CC1Cc2cc(F)ccc2N1C(=O)Cc1nc(N2CCOCC2)cc(=O)[nH]1 (single isomer, unassigned; (+)) [Example 13c, (+)-2-{2-[5-fluoro-2-methyl-2,3-dihydro-1H-indol-1-yl]-2-oxoethyl}-6-(morpholin-4-yl)pyrimidin-4(3H)-one] — within 1.5-fold, 5 nM
- CC1Cc2cc(F)ccc2N1C(=O)Cc1nc(N2CCOCC2)cc(=O)n1C (single isomer, unassigned; (+)) [Example 15c, (+)-2-{2-[5-fluoro-2-methyl-2,3-dihydro-1H-indol-1-yl]-2-oxoethyl}-3-methyl-6-(morpholin-4-yl)pyrimidin-4(3H)-one] — 7-fold higher, 28 nM
- CC1Cc2c(Br)cccc2N1C(=O)Cc1nc(N2CCOCC2)c(F)c(=O)[nH]1 (single isomer, unassigned; (+)) [Example 16a, (+)-2-{2-[4-bromo-2-methyl-2,3-dihydro-1H-indol-1-yl]-2-oxoethyl}-5-fluoro-6-(morpholin-4-yl)pyrimidin-4(3H)-one] — 120-fold higher, 483 nM
- CC1Cc2ccccc2N1C(=O)Cc1nc(N2CCOCC2)cc(=O)[nH]1 (single isomer, unassigned; (+)) [Example 21b, (+)-2-[2-(2-methyl-2,3-dihydroindol-1-yl)-2-oxoethyl]-6-morpholin(D8)-4-yl-3H-pyrimidin-4-one] — 6.8-fold higher, 27 nM
- O=C(Cc1nc(N2CCOCC2)cc(=O)[nH]1)N1c2ccccc2CC1c1ccccc1 (single isomer, unassigned; (+)) [Example 24d, (+)-6-(morpholin-4-yl)-2-{2-oxo-2-[2-phenyl-2,3-dihydro-1H-indol-1-yl]ethyl}pyrimidin-4(3H)-one] — 51-fold higher, 205 nM
- CC1Cc2c(Br)cccc2N1C(=O)Cc1nc(N2CCOCC2)cc(=O)[nH]1 (single isomer, unassigned; (+)) [Example 25c, (+)-2-{2-[4-bromo-2-methyl-2,3-dihydro-1H-indol-1-yl]-2-oxoethyl}-6-(morpholin-4-yl)pyrimidin-4(3H)-one] — 9.8-fold higher, 39 nM
- O=C(Cc1nc(N2CCOC(CO)C2)cc(=O)[nH]1)N1CCc2c(Cl)cccc21 (single isomer, unassigned; (+)) [Example 26b, (+)-2-[2-(4-Chloro-2,3-dihydroindol-1-yl)-2-oxoethyl]-6-(2-hydroxymethylmorpholin-4-yl)-3H-pyrimidin-4-one] — 60-fold higher, 240 nM
- CC1Cc2c(F)cccc2N1C(=O)Cc1nc(N2CCOCC2)cc(=O)[nH]1 (single isomer, unassigned; (+)) [Example 28c, (+)-2-{2-[4-fluoro-2-methyl-2,3-dihydro-1H-indol-1-yl]-2-oxoethyl}-6-(morpholin-4-yl)pyrimidin-4(3H)-one] — 24-fold higher, 98 nM
- CC1Cc2c(OC(F)F)cccc2N1C(=O)Cc1nc(N2CCOCC2)cc(=O)[nH]1 (single isomer, unassigned; (+)) [Example 29d, (+)-2-{2-[4-(difluoromethoxy)-2-methyl-2,3-dihydro-1H-indol-1-yl]-2-oxoethyl}-6-(morpholin-4-yl)pyrimidin-4(3H)-one] — 8.2-fold higher, 33 nM

Same assay, conditions: PC3 cells, 1 to 2 h incubation, P-AKT-S473, absolute IC50, mean of two independent experiments; listed as 27

Work on `O=C(Cc1nc(N2CCOCC2)cc(=O)[nH]1)N1c2ccccc2CC1c1ccc(F)cc1` (single isomer, unassigned; (+)) [Example 27d, (+)-2-{2-[2-(4-fluorophenyl)-2,3-dihydro-1H-indol-1-yl]-2-oxoethyl}-6-(morpholin-4-yl)pyrimidin-4(3H)-one] yielded an IC50 of 435 nM.

Source: patent US9133168B2, “Pyrimidine derivatives, preparation thereof, and pharmaceutical use thereof as akt(pkb) phosphorylation inhibitors” (SANOFI, priority 2010, dated 2015)
